The results in this text go back to DBAASP.

Test in all cases: ≥ marks a high value that may be exact or a test limit, other limits are often not marked, values filed in µg/mL are converted to µM
For experiment [1], the system named is Candida albicans.
In experiment [2] the test system is Staphylococcus aureus ATCC 29213.
Experiment [3] concerns Staphylococcus aureus.
Experiment [4] has as its system Escherichia coli ATCC 25922.
For experiment [5], the system named is Escherichia coli.
The test system of experiment [6] is Pseudomonas aeruginosa.
Experiment [7] concerns Candida albicans ATCC 90029.
In experiment [8] the test system is Escherichia coli O157:H7.
Experiment [9] concerns Escherichia coli J2210.
Experiment [10] has as its system Escherichia coli JW0013.
Experiment [11] has as its system Salmonella enterica subsp. enterica serovar Enteritidis MH91989.
Experiment [12] concerns Salmonella typhimurium SL1344.
In experiment [13] the test system is Escherichia coli JJ2487.
Experiment [14] concerns Escherichia coli MC1061.
In experiment [15] the test system is Aeromonas salmonicida 99-1.
The subject of experiment [16] is Staphylococcus aureus C623.
The test system of experiment [17] is Escherichia coli CGSC 4908.
Experiment [18] relates to Pseudomonas aeruginosa Z61.
The test system of experiment [19] is Candida albicans C627.
Experiment [20] concerns Pseudomonas aeruginosa K799.
The test system of experiment [21] is Salmonella enterica subsp. enterica serovar Typhimurium ATCC 14028s.
In experiment [22] the test system is Escherichia coli DC2.
The subject of experiment [23] is Escherichia coli UB1005.
The subject of experiment [24] is Aeromonas salmonicida 97-4.
Experiment [25] has as its system Salmonella enterica serovar typhimurium MS7953s.
For experiment [26], the system named is Staphylococcus epidermidis C621.
Experiment [27] concerns Streptococcus agalactiae BNCC 185941.
Experiment [28] concerns Salmonella enterica subsp. enterica serovar Choleraesuis CVCC 503.
Experiment [29] deals with Escherichia coli O157:H7 CICC 21530.
In experiment [30] the test system is Salmonella enterica subsp. enterica serovar Pullorum C79-13.
In experiment [31] the test system is Pseudomonas aeruginosa PAO1.
Experiment [32] relates to Staphylococcus epidermidis ATCC 12228.
For experiment [33], the system named is Lacticaseibacillus rhamnosus 1.0911.
Experiment [34] deals with Lacticaseibacillus rhamnosus 1.9021.
The subject of experiment [35] is Staphylococcus aureus ATCC 43300.
For experiment [36], the system named is Salmonella enterica subsp. enterica serovar Typhimurium ATCC 14028.
Experiment [37] deals with Pseudomonas aeruginosa ATCC 27853.
Experiment [38] deals with Lacticaseibacillus rhamnosus 1.0936.
The test system of experiment [39] is Lacticaseibacillus rhamnosus 8014.
For experiment [40], the system named is Escherichia coli K88.
Experiment [41] deals with Listeria monocytogenes NCTC 18890.
Experiment [42] relates to Listeria monocytogenes ATCC 19114.
Experiment [43] deals with Listeria monocytogenes ATCC 7644.
In experiment [44] the test system is Listeria monocytogenes.
In experiment [45] the test system is Listeria monocytogenes ATCC 19115.
In experiment [46] the test system is Lactobacillus delbrueckii subsp. bulgaricus CIDCA 331.
In experiment [47] the test system is Lactobacillus delbrueckii subsp. lactis CIDCA 133.

≈ marks a conversion by molar mass, not a printed value. Where “and” joins values, the source holds several entries; their conditions need not be identical. Equal entries are not always repeated.

By MIC is commonly meant the lowest concentration that inhibits growth of the organism. Lower therefore signals inhibition by little substance. On to `CC(C)C[C@H](NC(=O)[C@H](CO)NC(=O)[C@H](Cc1cnc[nH]1)NC(=O)[C@H](CO)NC(=O)[C@H](CC(C)C)NC(=O)[C@H](CC(C)C)NC(=O)[C@@H](N)CCCCN)C(=O)N[C@@H](CC(C)C)C(=O)N[C@H](C(=O)N[C@H](C(=O)N[C@@H](CC(C)C)C(=O)N[C@@H](C)C(=O)O)[C@@H](C)O)C(C)C` [KLLSHSLLVTLA], for which the minimum inhibitory concentration (MIC) in experiment [1] was above 154 µM; in [2], 4.83 µM (≈ 6.25 µg/mL); in experiment [3], 4.83 µM (≈ 6.25 µg/mL); in experiment [4], 4.83 µM (≈ 6.25 µg/mL); in [5] it was 9.66 µM (≈ 12.5 µg/mL); in experiment [6] it was 4.83 µM (≈ 6.25 µg/mL). In addition, the MIC in experiment [7] is at least 154 µM.
In the case of `CC[C@H](C)[C@H](NC(=O)[C@H](CCCN=C(N)N)NC(=O)[C@H](CCCN=C(N)N)NC(=O)[C@@H]1CCCN1C(=O)[C@@H]1CCCN1C(=O)[C@H](CCCN=C(N)N)NC(=O)[C@@H]1CCCN1C(=O)[C@H](CCCN=C(N)N)NC(=O)[C@@H]1CCCN1C(=O)[C@H](CCCCN)NC(=O)[C@H](Cc1ccc(O)cc1)NC(=O)[C@@H]1CCCN1C(=O)[C@H](CCCN=C(N)N)NC(=O)[C@H](CCCCN)NC(=O)[C@H](CC(=O)O)NC(=O)[C@@H](N)C(C)C)C(=O)N[C@@H](Cc1ccc(O)cc1)C(=O)N[C@@H](CC(N)=O)C(=O)N[C@@H](CCCN=C(N)N)C(N)=O` [VDKRPYKPRPRPPRRIYNR], the minimum inhibitory concentration (MIC) in experiment [8] was 0.974 µM (≈ 2.4 µg/mL); in experiment [9], 0.122 µM (≈ 0.3 µg/mL); in [10], 0.337 µM (≈ 0.83 µg/mL); in experiment [11], 0.158 µM (≈ 0.39 µg/mL); in [12], 0.158 µM (≈ 0.39 µg/mL); in experiment [13], 0.158 µM (≈ 0.39 µg/mL). Moreover, the minimum inhibitory concentration (MIC) in experiment [14] amounted to 0.0609 µM (≈ 0.15 µg/mL).
`CC[C@H](C)[C@H](NC(=O)[C@H](CC(C)C)NC(=O)CNC(=O)[C@H](Cc1cnc[nH]1)NC(=O)[C@@H](NC(=O)[C@H](Cc1c[nH]c2ccccc12)NC(=O)[C@H](CCCCN)NC(=O)CNC(=O)[C@@H](NC(=O)[C@H](Cc1cnc[nH]1)NC(=O)[C@H](Cc1cnc[nH]1)NC(=O)[C@@H](NC(=O)CNC(=O)[C@H](Cc1cnc[nH]1)NC(=O)[C@H](Cc1ccccc1)NC(=O)[C@H](CC(C)C)NC(=O)[C@H](CC(C)C)NC(=O)CNC(=O)[C@H](CC(C)C)NC(=O)[C@@H](N)Cc1ccccc1)C(C)C)C(C)C)[C@@H](C)CC)C(=O)N[C@@H](Cc1cnc[nH]1)C(=O)NCC(=O)N[C@@H](Cc1cnc[nH]1)C(=O)N[C@@H](Cc1cnc[nH]1)C(C)=O` [FLGLLFHGVHHVGKWIHGLIHGHH]: the minimum inhibitory concentration (MIC) in experiment [15] is 23.3 µM (≈ 64 µg/mL); in experiment [16], 2.91 µM (≈ 7.99 µg/mL); in experiment [17] it was 11.6 µM (≈ 32 µg/mL); in experiment [18], 2.91 µM (≈ 7.99 µg/mL); in experiment [19], 23.3 µM (≈ 64 µg/mL); in experiment [20], 11.6 µM (≈ 32 µg/mL). Besides, the minimum inhibitory concentration (MIC) was 23.3 µM (≈ 64 µg/mL) in [21]; 11.6 µM (≈ 32 µg/mL) in experiment [22]; 5.82 µM (≈ 16 µg/mL) in experiment [23]; 23.3 µM (≈ 64 µg/mL) in experiment [24]; 5.82 µM (≈ 16 µg/mL) in [25]; 2.91 µM (≈ 7.99 µg/mL) in [26].
Take `CC(C)C[C@H](NC(=O)CNC(=O)[C@H](CC(C)C)NC(=O)[C@H](Cc1c[nH]c2ccccc12)NC(=O)[C@H](CC(C)C)NC(=O)CNC(=O)[C@H](CC(C)C)NC(=O)[C@H](CCCN=C(N)N)NC(=O)[C@@H](N)CCCN=C(N)N)C(=O)N[C@@H](CCCN=C(N)N)C(=O)N[C@@H](CCCN=C(N)N)C(N)=O` [RRLGLWLGLRR]: the MIC in [27] was at least 128 µM; in [28], at least 128 µM; in experiment [2], 16 µM (≈ 22.3 µg/mL); in [29], 8 µM (≈ 11.2 µg/mL); in experiment [30], 2 µM (≈ 2.79 µg/mL); in experiment [31], 8 µM (≈ 11.2 µg/mL). Moreover, the minimum inhibitory concentration (MIC) in [4] was 4 µM and 8 µM; in [32], 128 µM (≈ 179 µg/mL); in experiment [33], at least 64 µM; in [34] it was at least 128 µM; in experiment [35], 16 µM (≈ 22.3 µg/mL); in [36] it was 32 µM (≈ 44.6 µg/mL). Moreover, the MIC in experiment [37] is 4 µM (≈ 5.58 µg/mL); in [38], at least 128 µM; in [39] it was at least 128 µM; in experiment [40], 2 µM (≈ 2.79 µg/mL).
With `CSCC[C@H](N)C(=O)N[C@@H](CCCN=C(N)N)C(=O)NCC(=O)N[C@@H](CO)C(=O)N[C@@H](Cc1cnc[nH]1)C(=O)N[C@@H](Cc1cnc[nH]1)C(=O)N[C@@H](Cc1cnc[nH]1)C(=O)N[C@@H](Cc1cnc[nH]1)C(=O)N[C@@H](Cc1cnc[nH]1)C(=O)N[C@@H](Cc1cnc[nH]1)C(=O)NCC(=O)N[C@@H](CO)C(=O)N[C@@H](CO)C(=O)NCC(=O)N[C@@H](CCC(=O)O)C(=O)N[C@@H](CC(N)=O)C(=O)N[C@@H](CC(C)C)C(=O)N[C@@H](Cc1ccc(O)cc1)C(=O)N[C@@H](Cc1ccccc1)C(=O)N[C@@H](CCC(N)=O)C(=O)N[C@@H](CO)C(=O)N[C@@H](CC(C)C)C(=O)O` [MRGSHHHHHHGSSGENLYFQSL], the MIC in experiment [41], in experiment [42], in experiment [43], in [44] and in [45] was at least 1960 µM each time.
`CC[C@H](C)[C@H](NC(=O)[C@H](CC(=O)O)NC(=O)[C@H](Cc1ccccc1)NC(=O)[C@H](CC(C)C)NC(=O)CN)C(=O)N[C@@H](CCCCN)C(=O)N[C@@H](CCCCN)C(=O)N[C@H](C(=O)N[C@@H](C)C(=O)N[C@@H](CO)C(=O)N[C@H](C(=O)N[C@H](C(=O)NCC(=O)NCC(=O)N[C@@H](CC(C)C)C(N)=O)[C@@H](C)CC)C(C)C)C(C)C` [GLFDIKKVASVIGGL]: the MIC was 25 µM (≈ 37.9 µg/mL) in experiment [46] and at least 50 µM in experiment [47].
